In US8030354B2, “Substituted biphenyl GPR40 modulators” (Amgen Inc., priority 2007, dated 2011):

Key:
GPR40 [1] = target: T1, GPR40 (Homo sapiens, UniProt O14842); assay: Cell-based aequorin assay (CHO cells stably expressing GPR40 and aequorin); set-up: expressed in transfected cells; host or cells: CHO cells stably transfected with GPR40 and aequorin; conditions: activation of human GPR40, CHO cells, 0.01% HSA
Summary of the method: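 CHO cells stably co-expressing GPR40 and aequorin, loaded with coelenterazine (1 ug/mL, 2 h, room temperature) in H/HBSS with 20 mM Hepes and 0.01% fatty acid-free HSA. Serially diluted compounds added; luminescence recorded over 20 s. EC50 from dose-response of maximum relative light units.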

GPR40 [2] = target: T1, GPR40; assay: Inositol phosphate accumulation assay (A9_GPR40 cells); assay type: cell-based; set-up: expressed in transfected cells; host or cells: CHO cells stably transfected with GPR40 and aequorin; conditions: inositol phosphate assay, A9_GPR40 cells, 1 hour; read-out: IP3 EC50
Summary of the method: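 [^3H] inositol phosphate accumulation was measured by SPA after 1 h compound exposure at 37° C in HBSS/10 mM LiCl containing HSA, ending with a 20 mM formic acid quench. The GPR40-transfected A9 cells had first been labelled overnight (16 h) with 1 μCi/mL ^3H-inositol.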

T1 sequence (O14842 whole entry): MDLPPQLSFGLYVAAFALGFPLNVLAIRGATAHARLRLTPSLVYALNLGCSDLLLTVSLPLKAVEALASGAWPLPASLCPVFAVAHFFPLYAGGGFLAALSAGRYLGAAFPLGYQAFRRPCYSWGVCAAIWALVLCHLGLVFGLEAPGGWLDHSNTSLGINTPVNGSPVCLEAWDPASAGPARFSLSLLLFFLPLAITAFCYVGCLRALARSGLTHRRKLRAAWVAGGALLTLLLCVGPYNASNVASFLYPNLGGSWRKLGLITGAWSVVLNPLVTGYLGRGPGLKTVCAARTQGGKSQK

| EC50 (GPR40 [1]) [nM] | EC50 (GPR40 [2]) [nM] | SMILES |
| --- | --- | --- |
| 10 to 100 | < 10 | COc1ccc(F)c(-c2ccc(COc3cc(F)cc(C(CC(=O)O)CC4CC4)c3)cc2C2CCCC2(C)C)c1 (single isomer, unassigned) [Example 89.1] |
| 100 to 1000 | 10 to 100 | COc1ccc(F)c(-c2ccc(COc3cc(F)cc(C(CC(=O)O)CC4CC4)c3)cc2C2=CCCC2(C)C)c1 (single isomer, unassigned) [Example 89.2, (3R)-4-Cyclopropyl-3-(3-(((2-(5,5-dimethyl-1-cyclopenten-1-yl)-2′-fluoro-5′-(methyloxy)-1,1′-biphenyl-4-yl)methyl)oxy)-5-fluorophenyl)butanoic acid or (3S)-4-cyclopropyl-3-(3-(((2-(5,5-dimethyl-1-cyclopenten-1-yl)-2′-fluoro-5′-(methyloxy)-1,1′-biphenyl-4-yl)methyl)oxy)-5-fluorophenyl)butanoic acid] |
| 100 to 1000 | < 10 | COc1ccc(F)c(-c2cc(F)c(COc3cc(F)cc(C(CC(=O)O)CC4CC4)c3)cc2C2CCCC2(C)C)c1 (single isomer, unassigned) [Example 89.3] |
| 100 to 1000 | < 10 | COc1cc(-c2ccc(COc3cc(F)cc(C(CC(=O)O)CC4CC4)c3)cc2C2CCCC2(C)C)c(F)cn1 (single isomer, unassigned) [Example 89.4] |
| 100 to 1000 | 10 to 100 | CCC(CC(=O)O)c1cc(F)cc(OCc2ccc(-c3cc(OC)ccc3F)c(C3=CCCC3(C)C)c2)c1F (single isomer, unassigned) [Example 90.1, (3R)-3-(3-(((2-(5,5-Dimethyl-1-cyclopenten-1-yl)-2′-fluoro-5′-(methyloxy)-1,1′-biphenyl-4-yl)methyl)oxy)-2,5-difluorophenyl)pentanoic acid or (3S)-3-(3-(((2-(5,5-dimethyl-1-cyclopenten-1-yl)-2′-fluoro-5′-(methyloxy)-1,1′-biphenyl-4-yl)methyl)oxy)-2,5-difluorophenyl)pentanoic acid] |
| 100 to 1000 | < 10 | CCC(CC(=O)O)c1cc(F)cc(OCc2ccc(-c3cc(OC)ccc3F)c(C3CCCC3(C)C)c2)c1F (single isomer, unassigned) [Example 90.2] |
| 100 to 1000 | < 10 | CCC(CC(=O)O)c1cc(F)cc(OCc2ccc(-c3cc(OC)ncc3F)c(C3CCCC3(C)C)c2)c1F (single isomer, unassigned) [Example 90.3] |
| 100 to 1000 | 10 to 100 | COc1ccc(F)c(-c2ccc(COc3cccc([C@@H](CC(=O)O)[C@@H]4C[C@H]4C)c3)cc2C(C)(C)C)c1 (single isomer, unassigned) [Example 93.1] |
| 100 to 1000 | 10 to 100 | COc1ccc(F)c(-c2ccc(COc3cccc([C@@H](CC(=O)O)[C@@H]4C[C@H]4C)c3)cc2C2=CCCC2(C)C)c1 (single isomer, unassigned) [Example 93.2] |
| 100 to 1000 | 10 to 100 | COc1ccc(F)c(-c2ccc(COc3cccc(C(CC(=O)O)C4CC4)c3F)cc2C2CCCC2(C)C)c1 (single isomer, unassigned) [Example 99.2] |
| 100 to 1000 | 10 to 100 | COc1ccc(F)c(-c2ccc(COc3cccc(C4(CC(=O)O)CCCCC4)c3)cc2C2CCCC2(C)C)c1 (single isomer, unassigned) [Example 105.1, (1-{3-[2-((S)-2,2-Dimethyl-cyclopentyl)-2′-fluoro-5′-methoxy-biphenyl-4-ylmethoxy]-phenyl}-cyclohexyl)-acetic acid or (1-{3-[2-((R)-2,2-dimethyl-cyclopentyl)-2′-fluoro-5′-methoxy-biphenyl-4-ylmethoxy]-phenyl}-cyclohexyl)-acetic acid] |

More lines, now with the values behind:

| SMILES | EC50 (GPR40 [1]) [nM] | EC50 (GPR40 [2]) [nM] |
| --- | --- | --- |
| COc1cc(-c2cc(F)c(COc3cccc(C(C)(C)CC(=O)O)c3)cc2C2CCCC2(C)C)c(F)cn1 (single isomer, unassigned) [Example 85.5, 3-(3-(((5-((1S)-2,2-Dimethylcyclopentyl)-2-fluoro-4-(5-fluoro-2-(methyloxy)-4-pyridinyl)phenyl)methyl)oxy)phenyl)-3-methylbutanoic acid or 3-(3-(((5-((1R)-2,2-dimethylcyclopentyl)-2-fluoro-4-(5-fluoro-2-(methyloxy)-4-pyridinyl)phenyl)methyl)oxy)phenyl)-3-methylbutanoic acid] | 100 to 1000 | 10 to 100 |
| COc1cc(-c2ccc(COc3cccc(C(C)(C)CC(=O)O)c3)cc2C(OC)C(C)(C)C)c(F)cn1 (single isomer, unassigned) [Example 85.6, 3-(3-(((3-((1S)-2,2-Dimethyl-1-(methyloxy)propyl)-4-(5-fluoro-2-(methyloxy)-4-pyridinyl)phenyl)methyl)oxy)phenyl)-3-methylbutanoic acid or 3-(3-(((3-((1R)-2,2-dimethyl-1-(methyloxy)propyl)-4-(5-fluoro-2-(methyloxy)-4-pyridinyl)phenyl)methyl)oxy)phenyl)-3-methylbutanoic acid] | 100 to 1000 | 10 to 100 |
| CCC(CC(=O)O)c1ccc(F)c(OCc2ccc(-c3cc(OC)ccc3F)c(C3=CCCC3(C)C)c2)c1 (single isomer, unassigned) [Example 86.1, (3R)-3-(3-(((2-(5,5-Dimethyl-1-cyclopenten-1-yl)-2′-fluoro-5′-(methyloxy)-1,1′-biphenyl-4-yl)methyl)oxy)-4-fluorophenyl)pentanoic acid or (3S)-3-(3-(((2-(5,5-dimethyl-1-cyclopenten-1-yl)-2′-fluoro-5′-(methyloxy)-1,1′-biphenyl-4-yl)methyl)oxy)-4-fluorophenyl)pentanoic acid] | 100 to 1000 | 100 to 1000 |
| CC[C@H](CC(=O)O)c1ccc(C)c(OCc2ccc(-c3cc(OC)ccc3F)c(C(C)(C)C)c2)c1 (single isomer, unassigned) [Example 87] | 100 to 1000 | 100 to 1000 |
| CCC(CC(=O)O)c1cc(F)cc(OCc2ccc(-c3cc(OC)ccc3F)c(C3CCCC3(C)C)c2)c1 (single isomer, unassigned) [Example 88.1] | 10 to 100 | < 10 |
| CCC(CC(=O)O)c1cc(F)cc(OCc2ccc(-c3cc(OC)ccc3F)c(C3=CCCC3(C)C)c2)c1 (single isomer, unassigned) [Example 88.2, (3R)-3-(3-(((2-(5,5-Dimethyl-1-cyclopenten-1-yl)-2′-fluoro-5′-(methyloxy)-1,1′-biphenyl-4-yl)methyl)oxy)-5-fluorophenyl)pentanoic acid or (3S)-3-(3-(((2-(5,5-dimethyl-1-cyclopenten-1-yl)-2′-fluoro-5′-(methyloxy)-1,1′-biphenyl-4-yl)methyl)oxy)-5-fluorophenyl)pentanoic acid] | 100 to 1000 | 10 to 100 |
| CCC(CC(=O)O)c1cc(F)cc(OCc2cc(C3CCCC3(C)C)c(-c3cc(OC)ccc3F)cc2F)c1 (single isomer, unassigned) [Example 88.3] | 100 to 1000 | < 10 |
| CCC(CC(=O)O)c1cc(F)cc(OCc2ccc(-c3cc(OC)ncc3F)c(C3CCCC3(C)C)c2)c1 (single isomer, unassigned) [Example 88.4] | 100 to 1000 | < 10 |
| CCC(CC(=O)O)c1cc(OCc2ccc(-c3cc(OC)ccc3F)c(C3=CCCC3(C)C)c2)cc(C(F)(F)F)c1 (single isomer, unassigned) [Example 91, (3R)-3-(3-(((2-(5,5-Dimethyl-1-cyclopenten-1-yl)-2′-fluoro-5′-(methyloxy)-1,1′-biphenyl-4-yl)methyl)oxy)-5-(trifluoromethyl)phenyl)pentanoic acid or (3S)-3-(3-(((2-(5,5-dimethyl-1-cyclopenten-1-yl)-2′-fluoro-5′-(methyloxy)-1,1′-biphenyl-4-yl)methyl)oxy)-5-(trifluoromethyl)phenyl)pentanoic acid] | 100 to 1000 | 10 to 100 |
| COc1ccc(F)c(-c2ccc(COc3cccc([C@H](CC(=O)O)C4CC4)c3)cc2[C@@H]2CCCC2(C)C)c1 (single isomer, unassigned) [Example 97.3] | 100 to 1000 | 10 to 100 |
| CCC(C)(CC(=O)O)c1cccc(OCc2ccc(-c3cc(OC)ccc3F)c([C@@H]3CCCC3(C)C)c2)c1 (single isomer, unassigned) [Example 103, 3-(3-(((2-((1S)-2,2-Dimethylcyclopentyl)-2′-fluoro-5′-(methyloxy)-1,1′-biphenyl-4-yl)methyl)oxy)phenyl)-3-methylpentanoic acid or 3-(3-(((2-((1R)-2,2-dimethylcyclopentyl)-2′-fluoro-5′-(methyloxy)-1,1′-biphenyl-4-yl)methyl)oxy)phenyl)-3-methylpentanoic acid] | 100 to 1000 | 10 to 100 |
| COc1ccc(F)c(-c2ccc(COc3cccc(C(C)(CC(=O)O)C4CC4)c3)cc2[C@H]2CCCC2(C)C)c1 (single isomer, unassigned) [Example 104, 3-Cyclopropyl-3-(3-(((2-((1S)-2,2-dimethylcyclopentyl)-2′-fluoro-5′-(methyloxy)-1,1′-biphenyl-4-yl)methyl)oxy)phenyl)butanoic acid or 3-cyclopropyl-3-(3-(((2-((1R)-2,2-dimethylcyclopentyl)-2′-fluoro-5′-(methyloxy)-1,1′-biphenyl-4-yl)methyl)oxy)phenyl)butanoic acid] | 100 to 1000 | 10 to 100 |
| COc1ccc(F)c(-c2ccc(COc3cccc(CCC(=O)O)c3)cc2C(C)(C)C)c1 [Example 34, 3-(3-(((2-(1,1-Dimethylethyl)-2′-fluoro-5′-(methyloxy)-1,1′-biphenyl-4-yl)methyl)oxy)phenyl)propanoic acid] | 100 to 1000 | 100 to 1000 |
